Reference: ChEMBL document CHEMBL5370656, “Structure-Activity Relationship and Biological Investigation of a REV-ERBα-Selective Agonist SR-29065 (34) for Autoimmune Disorders” (J Med Chem, 2023)
The source made the active and inactive calls. The rule behind the calls is not given here.

Legend:
[1] = target: CYP3A4 (Homo sapiens, UniProt P08684); experiment: Inhibition of CYP3A4 (unknown origin) at 10 uM relative to control; assay type: ADME
[2] = Metabolic stability in human liver microsome assessed as half life; assay type: ADME; details: liver microsomes
[3] = Metabolic stability in mouse liver microsome assessed as half life; assay type: ADME; details: liver microsomes
[4] = target: T1, Nuclear receptor subfamily 1 group D member 1 (Homo sapiens, UniProt P20393); experiment: Agonist activity at his6-tagged human REV-ERBalpha LBD (281 to 614 residues) expressed in Escherichia coli assessed as increase in SMRT corepressor peptide […] by TR-FRET assay incubated for 2 hrs by TR-FRET assay
T1 sequence (P20393 whole entry): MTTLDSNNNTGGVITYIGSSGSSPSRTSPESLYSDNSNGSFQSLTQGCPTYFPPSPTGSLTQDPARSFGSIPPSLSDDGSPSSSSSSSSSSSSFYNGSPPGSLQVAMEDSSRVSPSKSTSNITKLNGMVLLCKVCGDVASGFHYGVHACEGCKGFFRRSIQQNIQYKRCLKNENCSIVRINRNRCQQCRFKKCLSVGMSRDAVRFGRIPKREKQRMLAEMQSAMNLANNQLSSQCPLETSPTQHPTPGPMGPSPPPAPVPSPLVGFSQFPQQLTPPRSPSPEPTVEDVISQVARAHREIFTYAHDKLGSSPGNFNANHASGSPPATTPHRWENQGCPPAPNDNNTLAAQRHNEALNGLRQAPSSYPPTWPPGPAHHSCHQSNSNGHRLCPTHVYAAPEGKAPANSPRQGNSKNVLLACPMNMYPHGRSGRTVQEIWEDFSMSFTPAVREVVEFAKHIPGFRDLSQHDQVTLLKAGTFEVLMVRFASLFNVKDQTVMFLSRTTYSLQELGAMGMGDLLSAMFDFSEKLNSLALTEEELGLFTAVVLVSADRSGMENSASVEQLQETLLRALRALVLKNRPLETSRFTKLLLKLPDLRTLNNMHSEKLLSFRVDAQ

[5] = Cmax in mouse at 50 mg/kg, ip measured at 2 hrs; assay type: ADME, organism-based; design: dose 50 mg/kg, time 2 hrs, route ip; details: in vivo
[6] = target: T1, Nuclear receptor subfamily 1 group D member 1; experiment: Agonist activity at REV-ERBalpha LBD in HEK293 cells co-transfected with pG5-UAS pCMV-Gal4 incubated for 18 hrs by multimode plate reader analysis; assay type: cell-based
[7] = tested on: Mus musculus; experiment: In-vivo agonist activity at REV-ERBalpha in experimental autoimmune encephalomyelitis C57BL/6 mouse model assessed as reduction in clock mRNA expression by RT-PCR analysis; assay type: functional
[8] = Cmax in mouse at 50 mg/kg, ip measured for 12 hrs; assay type: ADME, organism-based; design: time 12 hrs, dose 50 mg/kg, route ip; details: in vivo
[9] = target: CYP2C9 (Homo sapiens, UniProt P11712); experiment: Inhibition of CYP2C9 (unknown origin) at 10 uM relative to control; assay type: ADME
[10] = Cytotoxicity against human Th17 cells assessed as reduction in cell viability at 1.25 to 10 uM; assay type: toxicity, cell-based; details: th17, 10 µM, dose 1.25-10 µM
[11] = target: CYP2D6 (Homo sapiens, UniProt P10635); experiment: Inhibition of CYP2D6 (unknown origin) at 10 uM relative to control; assay type: ADME
[12] = tested on: Mus musculus; experiment: In-vivo agonist activity at REV-ERBalpha in experimental autoimmune encephalomyelitis C57BL/6 mouse model assessed as reduction in bmal1 mRNA expression by RT-PCR analysis; assay type: functional
[13] = tested on: Mus musculus; experiment: Protection against experimental autoimmune encephalomyelitis C57BL/6 mouse model assessed as reduction in disease severity at 25 to 50 mg/kg, ip bid; assay type: functional, organism-based; details: dose 25-50 mg/kg
[14] = target: T2, Nuclear receptor subfamily 1 group D member 2 (Homo sapiens) (UniProt Q14995); experiment: Agonist activity at human REV-ERBbeta
T2 sequence (whole entry): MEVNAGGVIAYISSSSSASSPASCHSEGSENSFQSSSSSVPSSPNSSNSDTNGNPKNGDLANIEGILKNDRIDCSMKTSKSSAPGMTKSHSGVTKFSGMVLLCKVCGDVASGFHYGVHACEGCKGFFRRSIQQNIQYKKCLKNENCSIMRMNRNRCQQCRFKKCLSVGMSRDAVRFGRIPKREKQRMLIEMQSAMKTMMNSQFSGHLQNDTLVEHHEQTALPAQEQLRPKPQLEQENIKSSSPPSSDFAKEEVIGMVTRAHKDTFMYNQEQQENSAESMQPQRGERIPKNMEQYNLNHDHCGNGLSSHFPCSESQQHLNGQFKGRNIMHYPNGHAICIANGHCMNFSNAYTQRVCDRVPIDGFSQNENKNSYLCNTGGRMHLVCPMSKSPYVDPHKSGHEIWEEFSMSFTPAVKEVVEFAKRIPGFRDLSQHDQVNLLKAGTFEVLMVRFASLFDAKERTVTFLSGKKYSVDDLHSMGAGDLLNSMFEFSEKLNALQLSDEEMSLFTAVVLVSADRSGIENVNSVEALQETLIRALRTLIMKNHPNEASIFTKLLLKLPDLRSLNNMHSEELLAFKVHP

[15] = target: T3, CYP1A2 (Homo sapiens, UniProt P05177); experiment: Inhibition of CYP1A2 (unknown origin) at 10 uM relative to control; assay type: ADME
T3 sequence (P05177 whole entry): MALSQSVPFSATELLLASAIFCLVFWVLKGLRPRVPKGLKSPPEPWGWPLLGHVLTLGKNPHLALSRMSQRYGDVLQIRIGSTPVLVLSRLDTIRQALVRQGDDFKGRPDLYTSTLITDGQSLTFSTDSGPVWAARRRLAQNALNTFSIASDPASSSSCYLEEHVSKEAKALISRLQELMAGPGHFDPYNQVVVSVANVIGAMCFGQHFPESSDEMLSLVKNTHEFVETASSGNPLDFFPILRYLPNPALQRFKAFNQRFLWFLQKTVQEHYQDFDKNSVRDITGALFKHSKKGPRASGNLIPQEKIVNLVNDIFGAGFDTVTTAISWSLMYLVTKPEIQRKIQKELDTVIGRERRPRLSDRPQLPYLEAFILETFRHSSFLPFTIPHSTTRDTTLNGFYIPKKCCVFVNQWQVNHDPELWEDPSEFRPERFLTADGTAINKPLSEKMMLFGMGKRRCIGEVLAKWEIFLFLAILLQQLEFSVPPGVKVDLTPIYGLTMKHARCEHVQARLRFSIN

[16] = tested on: Mus musculus; experiment: Protection against experimental autoimmune encephalomyelitis C57BL/6 mouse model assessed as disease onset at 25 to 50 mg/kg, ip bid; assay type: functional, organism-based; details: dose 25-50 mg/kg
[17] = tested on: Mus musculus; experiment: Protection against experimental autoimmune encephalomyelitis C57BL/6 mouse model assessed as decrease in number of T cells at 25 to 50 mg/kg, ip bid by flow cytometry analysis; assay type: functional, organism-based; details: T-cell, dose 25-50 mg/kg
[18] = tested on: Th17; experiment: Downregulation of IL-17A expression in human Th17 cells; assay type: functional, cell-based; details: dose 1.25-10 µM
[19] = Toxicity in experimental autoimmune encephalomyelitis C57BL/6 mouse model assessed as animal weight loss at 25 to 50 mg/kg, ip bid; assay type: organism-based; details: in vivo, dose 25-50 mg/kg
[20] = tested on: Mus musculus; experiment: Protection against experimental autoimmune encephalomyelitis C57BL/6 mouse model assessed as decrease in frequency of T cells at 25 to 50 mg/kg, ip bid by flow cytometry analysis; assay type: functional, organism-based; details: T-cell, dose 25-50 mg/kg

CYP3A4, sequence (P08684 whole entry): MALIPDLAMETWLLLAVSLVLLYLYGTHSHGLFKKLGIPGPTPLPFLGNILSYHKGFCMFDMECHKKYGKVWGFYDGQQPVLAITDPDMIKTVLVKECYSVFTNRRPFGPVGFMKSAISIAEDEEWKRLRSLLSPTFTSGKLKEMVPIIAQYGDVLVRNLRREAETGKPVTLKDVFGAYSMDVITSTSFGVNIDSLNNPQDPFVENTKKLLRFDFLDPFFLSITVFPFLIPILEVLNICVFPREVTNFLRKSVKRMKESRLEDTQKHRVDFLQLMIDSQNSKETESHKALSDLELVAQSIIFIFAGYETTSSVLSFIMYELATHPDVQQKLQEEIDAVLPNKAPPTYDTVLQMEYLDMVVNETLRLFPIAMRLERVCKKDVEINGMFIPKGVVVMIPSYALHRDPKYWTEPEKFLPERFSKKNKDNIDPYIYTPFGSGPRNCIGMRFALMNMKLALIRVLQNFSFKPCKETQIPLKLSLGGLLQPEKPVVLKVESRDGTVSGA
CYP2C9, sequence (P11712 whole entry): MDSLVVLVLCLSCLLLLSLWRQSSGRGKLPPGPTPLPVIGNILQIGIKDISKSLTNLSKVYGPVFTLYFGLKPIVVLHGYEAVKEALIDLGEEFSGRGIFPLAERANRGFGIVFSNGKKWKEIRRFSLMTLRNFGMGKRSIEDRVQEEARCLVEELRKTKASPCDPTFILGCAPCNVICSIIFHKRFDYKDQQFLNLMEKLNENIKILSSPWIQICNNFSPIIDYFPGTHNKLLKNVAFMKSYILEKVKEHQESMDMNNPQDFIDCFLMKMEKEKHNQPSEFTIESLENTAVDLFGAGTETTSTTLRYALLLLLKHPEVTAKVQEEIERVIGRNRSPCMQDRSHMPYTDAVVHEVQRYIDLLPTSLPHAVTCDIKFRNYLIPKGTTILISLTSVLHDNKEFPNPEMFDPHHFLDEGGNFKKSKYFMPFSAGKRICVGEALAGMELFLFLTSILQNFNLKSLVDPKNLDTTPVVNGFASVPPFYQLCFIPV
CYP2D6, sequence (P10635 whole entry): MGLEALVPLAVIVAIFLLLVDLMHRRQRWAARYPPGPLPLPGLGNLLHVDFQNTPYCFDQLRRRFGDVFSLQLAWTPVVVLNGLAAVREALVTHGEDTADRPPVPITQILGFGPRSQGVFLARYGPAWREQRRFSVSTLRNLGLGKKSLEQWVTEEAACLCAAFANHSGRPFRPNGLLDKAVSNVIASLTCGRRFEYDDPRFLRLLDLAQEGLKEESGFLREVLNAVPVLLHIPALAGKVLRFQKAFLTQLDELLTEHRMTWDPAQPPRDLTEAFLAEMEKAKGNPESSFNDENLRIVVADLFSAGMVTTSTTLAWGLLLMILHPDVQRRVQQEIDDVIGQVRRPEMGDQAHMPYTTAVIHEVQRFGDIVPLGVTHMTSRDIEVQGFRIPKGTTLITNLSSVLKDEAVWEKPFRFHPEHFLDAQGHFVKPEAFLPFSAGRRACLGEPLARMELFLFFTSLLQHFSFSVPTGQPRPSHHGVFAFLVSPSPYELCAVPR

| SMILES | half-life [2] | half-life [3] | EC50 [4] | further results |
| --- | --- | --- | --- | --- |
| CC(C)Cn1cc(CCNS(=O)(=O)N(C)C)c2ccc(-c3ccccc3)cc21 |  |  |  | inhibition at 10 µM [1]: 22% |
| CC(C)Cn1cc(CNS(=O)(=O)C2CC2)c2ccc(-c3ccccc3C(F)(F)F)cc21 | 5 min | 5 min |  |  |
| CC(C)Cn1cc(CCNS(=O)(=O)N(C)C)c2ccc(-c3ccc(F)cc3)cc21 |  |  | 0.79 µM |  |
| CC(C)Cn1cc(C(NS(=O)(=O)C2CC2)C(F)(F)F)c2ccc(-c3ccccc3C(F)(F)F)cc21 (stereo not given) | 76 min | 32 min | 0.11 µM | Cmax [5]: 12.2 µM; inhibition at 10 µM [1]: < 30%; EC50 [6]: 0.5 µM; Activity [7]: Active; Cmax [8]: ~0.8 µM; inhibition at 10 µM [9]: < 30%; Activity [10]: Non-Toxic; inhibition at 10 µM [11]: < 30%; Activity [12]: Active; Activity [13]: Active; Activity [14]: inactive; inhibition at 10 µM [15]: < 30%; Activity [16]: Active; Activity [17]: Active; Activity [18]: Active; Activity [19]: Non-Toxic; Activity [20]: Active |
| CC(C)Cn1cc(CCNS(=O)(=O)C2CC2)c2ccc(-c3ccncc3)cc21 |  |  | 0.025 µM |  |
| CC(C)Cn1cc(CCNS(=O)(=O)N(C)C)c2ccc(-c3cccc(C#N)c3)cc21 |  |  | 0.37 µM |  |
| CC(C)Cn1cc(CCNS(=O)(=O)N(C)C)c2ccccc21 |  |  | 0.99 µM |  |
| CC(C)Cn1cc(CCNS(=O)(=O)C2CC2)c2ccc(-c3ccccc3C(F)(F)F)cc21 | 4 min | 3 min |  |  |
| CC(C)Cn1cc(CCNS(=O)(=O)N(C)C)c2ccc(-c3ccccn3)cc21 |  |  | 1 µM | inhibition at 10 µM [1]: 96% |
| CC(C)Cn1cc(CCNS(=O)(=O)N(C)C)c2ccc(-c3cncnc3)cc21 |  |  | 2.9 µM |  |
| CC(C)Cn1cc(CCNS(=O)(=O)N(C)C)c2ccc(-c3cnn(C)c3)cc21 |  |  | > 5 µM |  |
| CC(C)Cn1cc(C(C)(C)NS(=O)(=O)C2CC2)c2ccc(-c3ccccc3C(F)(F)F)cc21 | 80 min | 3 min |  |  |
| CC(C)Cn1cc(CCNS(=O)(=O)N(C)C)c2ccc(-c3cccnc3)cc21 |  |  | 0.16 µM | inhibition at 10 µM [1]: 96% |
| CC(C)Cn1cc(C(C)NS(=O)(=O)C2CC2)c2ccc(-c3ccccc3C(F)(F)F)cc21 (stereo not given) | 9 min | 10 min | 0.007 µM |  |
